Here are results for 1 compound from PMC10390775, “CETP inhibitor evacetrapib enters mouse brain tissue” (Frontiers in Pharmacology, 2023).

The nature of data set [1]: Semi-PBPK three-compartment model of distribution to the brain. Set-up: species or system mice. On the procedure: A semi-physiological-based pharmacokinetic (PBPK) model was developed to obtain more mechanistic information on the distribution of evacetrapib in the brain. First, a two-compartmental model (i.e., a plasma and a peripheral compartment) with a first-order elimination rate was fitted to describe the kinetics of the compound in plasma ([Mukherjee, 2022]) (Figure 1). Second, a third compartment was added and connected to the plasma compartment (Figure 1). The brain compartment was subdivided into vascular and tissue sub-compartments, with mass balance differential equations describing a distribution in the tissue that can be limited by diffusion as follows ([Shen, 2010]): dABrT/dt=PA∙CBrP−PA∙CBrT/PBr, (9) CBrT=ABrT/VBr1−VBrVF, (10) dABrP/dt=QBrCp−CBrP−PA∙CBrP−PA∙CBrT/PBr, (11) CBrP=ABrP/VBr∙VBrVF∙PF, (12) CBr=ABrT+ABrP/VBr, (13) where ABrT is the amount in the brain tissue, ABrP is the amount in the brain plasma, CBrP the concentration in the brain plasma, CBrT the concentration in the brain tissue subcompartment, CBr the concentration in the brain, Cp the plasma concentration, PA the permeability area product, PBr the brain-to-plasma partition coefficient, PF the plasma fraction of the blood, VBrVF the vascular volume fraction of the brain, VBr the volume of the brain, and QBr plasma flow to the brain.
Several scenarios were tested using this semi-PBPK model and brain concentration data to determine the mechanisms that best explain accumulation in the brain: 1) no permeability (i.e., PA = 0 L/h); 2) a perfusion-limited distribution (PA > 1,000,000 L/h) using the predicted PBr ([Poulin and Haddad, 2011]); 3) a perfusion-limited distribution with a low PBr (fitted); 4) a diffusion-limited distribution (fitted PA) using the predicted PBr; and 5) diffusion-limited distribution (fitted PA) and low PBr (fitted).
We used a semi-physiological three-compartment model to simulate the in vivo data (Figure 1). The parameters for the plasma and peripheral compartments were fitted to the plasma concentration at 40 mg/kg BW (Table 1; Figure 5B) ([Brown et al., 1997]; [Peyret et al., 2010]). Then, four scenarios were simulated assuming the following: a) perfusion-limited distribution with the predicted brain-to-plasma partition coefficient (PBr), b) as in a) with a low PBr, c) diffusion-limited distribution with the predicted PBr, and d) as in c) with low PBr, against the brain concentration data corrected for residual blood as explained in the Methods section. When assuming perfusion-limited distribution, the model could not simulate the observed data (Figure 5A), even when we adjusted for PBr. […] Thus, we propose that evacetrapib enters the brain in a diffusion-limited manner, which could include some form of facilitated transport.

Data set [2] can be described thus: Rapid equilibrium dialysis, plasma on both sides of the membrane. It counts as in vitro ADME. The note with it: after 24 h, preliminary data. The text has this: One last factor we considered in this study was the mechanism by which evacetrapib is transported into brain tissue. To that effect, toxicokinetic parameters were derived from the blood and brain time courses, which indicate that the drug possibly requires some sort of transporter to reach peripheral compartments, such as the brain, and to clear from brain tissue. […] A possible explanation could be that evacetrapib enters the brain faster than it is cleared out of it, leading to a buildup in brain tissue. […] To determine which mechanisms are involved in evacetrapib distribution to the brain, a semi-PBPK model was developed (parameter values are in Table 1; Figure 5). To this end, we first aimed to determine the brain: plasma partition coefficient of evacetrapib using rapid equilibrium dialysis. […] This may be in line with our in vivo observations considering that only a small fraction of evacetrapib crossed the blood–brain barrier. However, the slow diffusion in our in vitro model is incongruent with the concentrations of evacetrapib found in the brain 2.2 h following intravenous injections. Thus, the implication of transporters cannot be excluded.

Details of data set [3]: method as in Small et al., 2015. The note with it: ref Small et al., 2015; cited from earlier work.
The conditions of data set [4]: continuous administration; ref Small et al., 2015; Nurmohamed et al., 2022; cited from earlier work.
The conditions of data set [5]: cited from earlier work.
Where [6] appears, read: two-compartment model, fitted to plasma concentration at 40 mg/kg BW.

Turning to `Cc1cc(C)c2c(c1)[C@@H](N(Cc1cc(C(F)(F)F)cc(C(F)(F)F)c1)c1nnn(C)n1)CCCN2C[C@H]1CC[C@H](C(=O)O)CC1` [evacetrapib], the “Permeability area product (PA)” value in data set [1] (fitted, diffusion-limited distribution) is 1.1e-05 L/h. Moreover, the Kp in data set [1] (male, hCETPtg (C57BL/6J background), mouse, intravenous, 40 mg/kg BW, fitted to brain concentrations corrected for residual blood, read-out: Brain:plasma partition coefficient (PBr)) is 0.06. Besides, the k el in data set [1] (male, hCETPtg (C57BL/6J background), mouse, intravenous, two-compartment model, fitted to plasma concentration at 40 mg/kg BW, read-out: Elimination constant (Kel) (converted)) was 0.000386 s⁻¹. Moreover, in data set [1] (setting [6]), the “Apparent plasma volume (Vplasma)” value was determined as 0.01 L, the “Peripheral to plasma transfer constant (K21)” value is 1.21 h⁻¹ and the “Plasma to peripheral transfer constant (K12)” value was determined as 2.4 h⁻¹. Also, the “Fraction diffused across the dialysis membrane” value in data set [2] is 2%. Also, the “logP (octanol to water partition coefficient)” value in data set [3] is recorded as 7.56. Moreover, the “Accumulation in adipose tissues” value in data set [4] was “does not accumulate in adipose tissues”. Also, the Tolerated dose entry in data set [5] (rat, in vivo, po) is given as “up to 600 mg/kg BW/day”. Besides, in data set [5] (rats, oral gavage, ref Takubo et al., 2014, Simic et al., 2017), the Oral absorption fraction is 25%.
